Laboratory results: patent US6833372B2, “Non-peptide GnRH agents, Pharmaceutical compositions, and methods for their use” (Pfizer, Inc., priority 2002, dated 2004)
In brackets after ≈: the same amount, converted by molar mass. Read-outs that look alike come from different tables or passages of the source.

Assays:
human GnRH receptors = target: T1, human GnRH receptors (Homo sapiens, UniProt P30968); assay: Radioligand binding: inhibition of 125I-GnRH-A binding to human GnRH receptor membranes; conditions: HEK 293 cell membranes
T1 construct: expressed in transfected cells; host or cells: HEK 293 cells, stably transfected; membranes
T1 sequence (P30968 1-328): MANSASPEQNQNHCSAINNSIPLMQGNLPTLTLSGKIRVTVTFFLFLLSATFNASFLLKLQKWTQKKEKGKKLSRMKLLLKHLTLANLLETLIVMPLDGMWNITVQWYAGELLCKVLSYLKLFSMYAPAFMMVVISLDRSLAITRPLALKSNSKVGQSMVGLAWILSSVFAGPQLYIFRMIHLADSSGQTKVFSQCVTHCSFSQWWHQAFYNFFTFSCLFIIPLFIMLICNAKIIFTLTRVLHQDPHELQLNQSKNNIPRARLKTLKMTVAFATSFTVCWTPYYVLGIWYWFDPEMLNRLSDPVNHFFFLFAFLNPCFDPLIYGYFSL
In short: (§1)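 Membranes from rat pituitaries, or HEK 293 cells stably expressing mouse or human receptor, incubated 1 hour at room temperature with ~0.04-0.06 nM radioligand (HEPES pH 7.4, EDTA, MgCl2, BSA) and competitor at 0.1-10,000 nM. Bound ligand collected by GF/C filtration and counted; Ki derived from IC50 by Cheng-Prusoff.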

rat GnRH receptor = target: T2, rat GnRH receptor (Rattus norvegicus, UniProt P30969); assay: Radioligand binding: inhibition of 125I-GnRH-A binding to rat GnRH receptor (rat pituitary membranes); conditions: read-out: Ki (nM), Inhibition Binding of 125I-GnRH-A to GnRH Receptors
T2 construct: or rat pituitaries (Pel Freez Biologicals, Rogers, Ark.) were homogenized; tissue Pel Freez Biologicals; host or cells: rat pituitaries (membrane preparation)
T2 sequence (P30969 1-327): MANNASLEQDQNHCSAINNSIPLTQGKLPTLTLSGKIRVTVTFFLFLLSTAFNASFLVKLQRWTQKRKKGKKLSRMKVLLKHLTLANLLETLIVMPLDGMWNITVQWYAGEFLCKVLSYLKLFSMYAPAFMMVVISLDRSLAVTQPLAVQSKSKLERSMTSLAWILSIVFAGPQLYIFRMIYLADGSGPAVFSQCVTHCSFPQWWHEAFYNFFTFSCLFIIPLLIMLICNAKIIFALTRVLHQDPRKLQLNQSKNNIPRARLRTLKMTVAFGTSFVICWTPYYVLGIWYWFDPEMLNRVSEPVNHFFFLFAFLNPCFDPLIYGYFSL
In short: as §1

[1] = In vitro metabolism: disappearance of parent compound in rat liver microsomes (male, female); assay type: in vitro ADME; conditions: 5 uM compound, 30 minutes 37° C.; for Fem. Rat (FR) % rem. 30′: female rat liver microsomes; for Male Rat (MR) % rem. 30′: male rat liver microsomes
In short: (§2)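 Microsomes from human, rat (male, female), dog and monkey liver incubated with 5 uM compound, 0.5 mg/ml protein and 2 mM NADPH in 50 mM K phosphate, pH 7.4, for 30 min at 37° C. Reaction stopped with acetonitrile; parent compound remaining measured by LC-MS.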

[2] = In vitro metabolism: disappearance of parent compound in dog liver microsomes; assay type: in vitro ADME; conditions: 5 uM compound, 30 minutes 37° C.
In short: as §2

[3] = In vitro metabolism: disappearance of parent compound in monkey liver microsomes; assay type: in vitro ADME; conditions: 5 uM compound, 30 minutes 37° C.
In short: as §2

Rat plasma % remain = assay type: in vitro ADME
H S A = H S A (Homo sapiens, UniProt P02768); assay: H S A column α; assay type: in vitro ADME
H S A, sequence (P02768 25-609): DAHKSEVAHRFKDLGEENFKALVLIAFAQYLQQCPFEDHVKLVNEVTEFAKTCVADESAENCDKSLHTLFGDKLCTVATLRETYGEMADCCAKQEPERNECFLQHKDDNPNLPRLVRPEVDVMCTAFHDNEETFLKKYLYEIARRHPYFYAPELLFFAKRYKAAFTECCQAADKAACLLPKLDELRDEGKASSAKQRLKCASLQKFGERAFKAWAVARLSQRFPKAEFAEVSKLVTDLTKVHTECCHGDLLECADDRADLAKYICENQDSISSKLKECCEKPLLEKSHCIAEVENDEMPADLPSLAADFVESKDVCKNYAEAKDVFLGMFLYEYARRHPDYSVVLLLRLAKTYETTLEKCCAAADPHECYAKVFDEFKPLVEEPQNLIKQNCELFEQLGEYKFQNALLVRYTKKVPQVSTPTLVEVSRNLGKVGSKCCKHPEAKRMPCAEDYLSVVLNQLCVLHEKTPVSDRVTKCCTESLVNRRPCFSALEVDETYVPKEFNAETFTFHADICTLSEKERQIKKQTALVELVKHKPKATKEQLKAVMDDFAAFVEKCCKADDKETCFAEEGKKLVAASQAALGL

[4] = Solubility at pH2 and pH6; assay type: physicochemical
[5] = pH 6, aqueous buffer, pH6, read-out: Solubility μg/ml pH6

| SMILES | Ki (human GnRH receptors) | Ki (rat GnRH receptor) | Fem. Rat (FR) % rem. 30′ [1] | Male Rat (MR) % rem. 30′ [1] | Dog % rem. 30′ [2] | Monkey % rem. [3] | Rat plasma % remain (Rat plasma % remain) | H S A column α (H S A) | solubility ([4]; pH 2, simulated gastric fluid, pH2, read-out: Solubility μg/ml pH2) | solubility [4, 5] |
| --- | --- | --- | --- | --- | --- | --- | --- | --- | --- | --- |
| COc1nc(OC)c(NC(=O)c2ccc(Cc3cc4c(cc3C)C(C)(C)OC4(C)C)o2)c(OC)n1 [Example A1, 5-(1,1,3,3,6-Pentamethyl-1,3-dihydro-isobenzofuran-5-ylmethyl)-furan-2-carboxylic Acid (2,4,6-trimethoxy-pyrimidin-5-yl)-amide] | 4.6 nM | 3.8 nM | 74% | 11% | 22% | 0% | 100% | 1 | > 12 µg/mL | > 12 µg/mL |
| COc1nc(OCCO)nc(OC)c1NC(=O)c1ccc(Cc2cc3c(cc2C)C(C)(C)OC3(C)C)o1 [Example A3, 5-(1,1,3,3,6-Pentamethyl-1,3-dihydro-isobenzofuran-5-ylmethyl)-furan-2-carboxylic acid [2-(2-hydroxy-ethoxy)-4,6-dimethoxy-pyrimidin-5-yl]-amide] | 7.7 nM | 5.4 nM | 75% | 44% | 49% | 7% | 100% | 0.4 | – | > 15 µg/mL |
| COc1nc(N(C)C)nc(OC)c1NC(=O)c1ccc(Cc2cc3c(cc2C)C(C)(C)CCC3(C)C)o1 [Example B2, 5-(3,5,5,8,8-Pentamethyl-5,6,7,8-tetrahydro-naphthalen-2-ylmethyl)-furan-2-carboxylic Acid (dimethylamino-dimethoxy-pyrimidin-5-yl)-amide] | 1.8 nM | 11 nM | 35% | 11% | 4% | 12% | 83% | >30 | – | 0.4 µg/mL (≈ 0.79 µM) |
| COc1nc(OC)c(NC(=O)c2ccc(Cc3cc4c(cc3C)C(C)(C)CCC4(C)C)o2)c(OC)n1 [Example C1, 5-(3,5,5,8,8-Pentamethyl-5,6,7,8-tetrahydro-naphthalen-2-ylmethyl)-furan-2-carboxylic Acid (2,4,6-trimethoxy-pyrimidin-5-yl)-amide] | 0.55 nM | 0.7 nM | 72% | 1% | 0% | 0% | 100% | 13 | – | 1 µg/mL (≈ 2.03 µM) |
